According to PubChem BioAssay AID1963973 (Molecular Pharmacology Branch, DTP, NCI, 2024):
Where “and” joins values, the source holds several entries; their conditions need not be identical. Equal values may be shown once.

System: 883617-216-R-J1-PDC tumor spheroids, viability
Assay: Anticancer human tumor 883617-216-R-J1-PDC patient-derived bladder carcinoma cell line growth inhibition [PI3K]
Conditions: spheroids with HUVEC and MSC; for viability, T/C: stronger effect = lower value
Outline: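 Three cell types, namely tumor cells, endothelial cells and mesenchymal stem cells, formed each spheroid. Combinations with four PI3K inhibitors were screened at clinically achievable concentrations decreasing by half-log, and spheroid viability was recorded.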
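Note: spheroids exposed to agents for 7 days before the viability read.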

Q: With `C[C@@H](NC(=O)c1ncnc(N)c1Cl)c1ncc(C(=O)Nc2cc(C(F)(F)F)c(Cl)cn2)s1` as the compound, how does the viability, T/C (compound 0.1 µM) read?
A: Its viability, T/C is 96.9% [middle of 4 runs].

Q: What about the viability, T/C (compound 0.316 µM) of the same compound?
A: The viability, T/C was 88.3% [middle of 4 runs].

Q: What about the viability, T/C (compound 1 µM) of the same compound?
A: Its viability, T/C is 96.5% [middle of 4 runs].

Q: What about the viability, T/C (compound 3.16 µM) of the same compound?
A: The viability, T/C was 93.2% (2×) and 95.3% and 100%.

Q: What about the viability, T/C (compound 10 µM) of the same compound?
A: Its viability, T/C is 73% [middle of 4 runs].

Q: And the IC50 (curve of compound)?
A: The IC50 was > 10000 nM.

Q: `CC(=O)c1c(C)c2cnc(Nc3ccc(N4CCNCC4)cn3)nc2n(C2CCCC2)c1=O` + CC(Nc1ccc2c(c1)OCCn1cc(N3C(=O)OCC3C(F)F)nc1-2)C(N)=O was tested. Which IC50 (curve of first compound, second compound 0.00316 µM) did it give?
A: The IC50 was 74.3 nM.

Q: And the IC50 (curve of first compound, second compound 0.01 µM)?
A: Its IC50 is 54.3 nM.

Q: And the IC50 (curve of first compound, second compound 0.0316 µM)?
A: Its IC50 is 35.9 nM.

Q: What about the IC50 (curve of first compound, second compound 0.1 µM) of the same compound?
A: Its IC50 is 0.515 nM.

Q: What about the IC50 (curve of first compound, second compound 0.316 µM) of the same compound?
A: Its IC50 is < 0.316 nM.

Q: What about the IC50 (curve of first compound, second compound 1 µM) of the same compound?
A: Its IC50 is < 0.316 nM.

Q: What about the viability, T/C (second compound 0.00316 µM, first compound 0.000316 µM) of the same compound?
A: The viability, T/C was 99.1%.

Q: And the viability, T/C (second compound 0.00316 µM, first compound 0.001 µM)?
A: The viability, T/C was 97.3%.

Q: And the viability, T/C (second compound 0.00316 µM, first compound 0.00316 µM)?
A: The viability, T/C was 86.7%.

Q: What about the viability, T/C (second compound 0.00316 µM, first compound 0.01 µM) of the same compound?
A: The viability, T/C was 84.1%.

Q: What about the viability, T/C (second compound 0.00316 µM, first compound 0.0316 µM) of the same compound?
A: Its viability, T/C is 67%.

Q: And the viability, T/C (second compound 0.00316 µM, first compound 0.1 µM)?
A: Its viability, T/C is 43.6%.

Q: And the viability, T/C (second compound 0.01 µM, first compound 0.000316 µM)?
A: The viability, T/C was 78.1%.

Q: And the viability, T/C (second compound 0.01 µM, first compound 0.001 µM)?
A: Its viability, T/C is 85.7%.

Q: What about the viability, T/C (second compound 0.01 µM, first compound 0.00316 µM) of the same compound?
A: Its viability, T/C is 82%.

Q: What about the viability, T/C (second compound 0.01 µM, first compound 0.01 µM) of the same compound?
A: Its viability, T/C is 78.7%.

Q: What about the viability, T/C (second compound 0.01 µM, first compound 0.0316 µM) of the same compound?
A: The viability, T/C was 55.9%.

Q: And the viability, T/C (second compound 0.01 µM, first compound 0.1 µM)?
A: The viability, T/C was 43.4%.

Q: What about the viability, T/C (second compound 0.0316 µM, first compound 0.000316 µM) of the same compound?
A: The viability, T/C was 74.2%.

Q: And the viability, T/C (second compound 0.0316 µM, first compound 0.001 µM)?
A: The viability, T/C was 78.9%.

Q: And the viability, T/C (second compound 0.0316 µM, first compound 0.00316 µM)?
A: The viability, T/C was 67.5%.

Q: And the viability, T/C (second compound 0.0316 µM, first compound 0.01 µM)?
A: The viability, T/C was 69.8%.

Q: What about the viability, T/C (second compound 0.0316 µM, first compound 0.0316 µM) of the same compound?
A: Its viability, T/C is 51.2%.

Q: What about the viability, T/C (second compound 0.0316 µM, first compound 0.1 µM) of the same compound?
A: The viability, T/C was 34.9%.

Q: What about the viability, T/C (second compound 0.1 µM, first compound 0.000316 µM) of the same compound?
A: Its viability, T/C is 52%.

Q: What about the viability, T/C (second compound 0.1 µM, first compound 0.001 µM) of the same compound?
A: The viability, T/C was 47.8%.

Q: And the viability, T/C (second compound 0.1 µM, first compound 0.00316 µM)?
A: The viability, T/C was 42.8%.

Q: And the viability, T/C (second compound 0.1 µM, first compound 0.01 µM)?
A: Its viability, T/C is 42.6%.

Q: And the viability, T/C (second compound 0.1 µM, first compound 0.0316 µM)?
A: Its viability, T/C is 32.2%.

Q: And the viability, T/C (second compound 0.1 µM, first compound 0.1 µM)?
A: Its viability, T/C is 26.1%.

Q: And the viability, T/C (second compound 0.316 µM, first compound 0.000316 µM)?
A: Its viability, T/C is 33.9%.

Q: And the viability, T/C (second compound 0.316 µM, first compound 0.001 µM)?
A: Its viability, T/C is 26.1%.

Q: What about the viability, T/C (second compound 0.316 µM, first compound 0.00316 µM) of the same compound?
A: The viability, T/C was 26.7%.

Q: And the viability, T/C (second compound 0.316 µM, first compound 0.01 µM)?
A: The viability, T/C was 26.3%.

Q: And the viability, T/C (second compound 0.316 µM, first compound 0.0316 µM)?
A: The viability, T/C was 18.3%.

Q: What about the viability, T/C (second compound 0.316 µM, first compound 0.1 µM) of the same compound?
A: The viability, T/C was 15.8%.

Q: What about the viability, T/C (second compound 1 µM, first compound 0.000316 µM) of the same compound?
A: The viability, T/C was 18.6%.

Q: And the viability, T/C (second compound 1 µM, first compound 0.001 µM)?
A: Its viability, T/C is 15.8%.

Q: What about the viability, T/C (second compound 1 µM, first compound 0.00316 µM) of the same compound?
A: Its viability, T/C is 14.3%.

Q: And the viability, T/C (second compound 1 µM, first compound 0.01 µM)?
A: The viability, T/C was 14.8%.

Q: And the viability, T/C (second compound 1 µM, first compound 0.0316 µM)?
A: The viability, T/C was 15.5%.

Q: What about the viability, T/C (second compound 1 µM, first compound 0.1 µM) of the same compound?
A: Its viability, T/C is 10.1%.

Q: Which results are given for `COc1c(OCCCN2CCOCC2)ccc2c3n(c(=NC(=O)c4cnc(N)nc4)nc12)CCN3`?
A: viability, T/C (compound 0.00316 µM): 93.8% [middle of 8 runs]; viability, T/C (compound 0.01 µM): 70.5% [middle of 8 runs]; viability, T/C (compound 0.0316 µM): 40% [middle of 8 runs]; viability, T/C (compound 0.1 µM): 15.4% [middle of 8 runs]; viability, T/C (compound 0.316 µM): 4.37% [middle of 7 runs]; viability, T/C (compound 1 µM): 3.24% [middle of 8 runs]; IC50 (compound alone, run of 04/25/2023): 20.7 nM [middle of 8 runs]
